Results reported in ChEMBL document CHEMBL3286148, “Aminoazabenzimidazoles, a novel class of orally active antimalarial agents” (J Med Chem, 2014).
In brackets after ≈: the same amount, converted by molar mass.

What was measured:
[1] = Selectivity index, ratio of IC50 for human A549 cells to IC50 for Plasmodium falciparum; format: toxicity, cell-based; settings: read-out: Ratio IC50
[2] = tested on: Plasmodium falciparum; assay: microbe, parasite or virus in culture; settings: K1, 72 h
[3] = tested on: Plasmodium falciparum; assay: microbe, parasite or virus in culture; settings: NF54, 72 h
[4] = tested on: Plasmodium falciparum; assay: microbe, parasite or virus in culture; settings: W2, 72 h
Description: Antiplasmodial activity against Plasmodium falciparum W2 after 72 hrs by SYBR I method

[5] = tested on: Plasmodium falciparum; assay: microbe, parasite or virus in culture; settings: Dd2, 72 h
Description: Antiplasmodial activity against Plasmodium falciparum Dd2 after 72 hrs by SYBR I method

[6] = Clearance in human liver microsomes; format: ADME; settings: read-out: CLH
[7] = Clearance in mouse liver microsomes; format: ADME; settings: read-out: CLH
[8] = Clearance in rat hepatocytes assessed per 1E6 cells; format: ADME, cell-based, Hepatocyte; settings: read-out: CLH
[9] = tested on: Plasmodium falciparum; assay: microbe, parasite or virus in culture; settings: SB1, 72 h
Description: Antiplasmodial activity against Plasmodium falciparum SB1 after 72 hrs by SYBR I method

[10] = tested on: Plasmodium falciparum; assay: microbe, parasite or virus in culture; settings: 7G8, 72 h
Description: Antiplasmodial activity against Plasmodium falciparum 7G8 after 72 hrs by SYBR I method

[11] = target: Voltage-gated inwardly rectifying potassium channel KCNH2 (Homo sapiens, UniProt Q12809); assay: Inhibition of human ERG
[12] = tested on: Plasmodium falciparum; assay: Antiplasmodial activity against Plasmodium falciparum Dd2 harboring DHODH mutant; format: functional, organism-based
[13] = tested on: Plasmodium falciparum; assay: Antiplasmodial activity against Plasmodium falciparum Dd2 harboring CYTb-Qi mutant; format: functional, organism-based
[14] = tested on: Plasmodium falciparum; assay: Antiplasmodial activity against Plasmodium falciparum Dd2; format: functional, organism-based
[15] = tested on: Plasmodium falciparum; assay: Antiplasmodial activity against Plasmodium falciparum Dd2 harboring CRT mutant; format: functional, organism-based
[16] = Fraction unbound in human plasma; format: ADME, cell-free
[17] = target: Cytochrome P450 2C19 (Homo sapiens, UniProt P33261); assay: Inhibition of CYP2C19 (unknown origin); format: ADME
[18] = target: Cytochrome P450 3A4 (Homo sapiens, UniProt P08684); assay: Inhibition of CYP3A4 (unknown origin); format: ADME
[19] = target: Cytochrome P450 2D6 (Homo sapiens, UniProt P10635); assay: Inhibition of CYP2D6 (unknown origin); format: ADME
[20] = Aqueous solubility of the compound; format: physicochemical; settings: buffer
[21] = target: Cytochrome P450 2C9 (Homo sapiens, UniProt P11712); assay: Inhibition of CYP2C9 (unknown origin); format: ADME
[22] = Lipophilicity, log D of the compound; format: physicochemical; settings: octanol/water
[23] = target: T1, Cytochrome P450 1A2 (Homo sapiens, UniProt P05177); assay: Inhibition of CYP1A2 (unknown origin); format: ADME
T1 sequence (P05177 whole entry): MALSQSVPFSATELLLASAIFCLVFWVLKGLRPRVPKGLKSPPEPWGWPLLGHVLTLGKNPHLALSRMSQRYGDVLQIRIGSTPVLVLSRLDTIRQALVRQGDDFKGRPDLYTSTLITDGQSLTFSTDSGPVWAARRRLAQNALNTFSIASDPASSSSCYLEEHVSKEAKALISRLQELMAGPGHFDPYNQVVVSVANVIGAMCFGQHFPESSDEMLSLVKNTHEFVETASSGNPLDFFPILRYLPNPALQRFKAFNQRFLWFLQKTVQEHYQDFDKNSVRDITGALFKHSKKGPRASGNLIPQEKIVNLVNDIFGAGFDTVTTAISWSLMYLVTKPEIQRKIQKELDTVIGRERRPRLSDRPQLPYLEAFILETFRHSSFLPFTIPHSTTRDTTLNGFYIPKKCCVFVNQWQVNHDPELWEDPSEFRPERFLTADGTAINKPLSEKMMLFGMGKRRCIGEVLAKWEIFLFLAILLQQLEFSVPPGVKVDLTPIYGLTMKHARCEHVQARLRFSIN

Voltage-gated inwardly rectifying potassium channel KCNH2, sequence (Q12809 whole entry): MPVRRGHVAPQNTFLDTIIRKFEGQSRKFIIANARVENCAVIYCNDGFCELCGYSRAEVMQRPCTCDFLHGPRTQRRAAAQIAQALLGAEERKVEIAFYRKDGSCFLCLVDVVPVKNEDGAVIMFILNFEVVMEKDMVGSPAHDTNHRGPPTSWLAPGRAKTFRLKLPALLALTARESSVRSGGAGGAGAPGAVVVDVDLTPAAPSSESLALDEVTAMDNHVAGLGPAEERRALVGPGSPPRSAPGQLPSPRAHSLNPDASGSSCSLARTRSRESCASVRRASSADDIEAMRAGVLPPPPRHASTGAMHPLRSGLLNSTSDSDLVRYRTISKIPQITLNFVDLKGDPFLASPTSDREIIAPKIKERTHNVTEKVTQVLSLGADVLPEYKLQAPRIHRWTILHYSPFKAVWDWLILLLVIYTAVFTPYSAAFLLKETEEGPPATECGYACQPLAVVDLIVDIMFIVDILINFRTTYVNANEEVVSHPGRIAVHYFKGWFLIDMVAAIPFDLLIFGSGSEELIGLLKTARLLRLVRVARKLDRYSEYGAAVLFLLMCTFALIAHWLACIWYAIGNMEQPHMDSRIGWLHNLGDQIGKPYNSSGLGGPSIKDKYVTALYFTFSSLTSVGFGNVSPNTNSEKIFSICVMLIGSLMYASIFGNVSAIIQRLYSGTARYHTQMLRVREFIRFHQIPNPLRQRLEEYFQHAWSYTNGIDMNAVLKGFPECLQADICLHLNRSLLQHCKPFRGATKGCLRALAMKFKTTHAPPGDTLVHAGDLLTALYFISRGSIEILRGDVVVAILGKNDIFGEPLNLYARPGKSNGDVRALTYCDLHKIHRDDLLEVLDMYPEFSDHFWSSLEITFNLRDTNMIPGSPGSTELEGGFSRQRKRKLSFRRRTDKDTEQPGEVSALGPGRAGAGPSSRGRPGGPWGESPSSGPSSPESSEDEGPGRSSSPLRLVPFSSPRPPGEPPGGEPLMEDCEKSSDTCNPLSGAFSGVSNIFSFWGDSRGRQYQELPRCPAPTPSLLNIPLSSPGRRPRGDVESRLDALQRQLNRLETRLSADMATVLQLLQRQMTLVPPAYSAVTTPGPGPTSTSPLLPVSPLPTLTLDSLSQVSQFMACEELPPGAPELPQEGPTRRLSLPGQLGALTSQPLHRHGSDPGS
Cytochrome P450 3A4, sequence (P08684 whole entry): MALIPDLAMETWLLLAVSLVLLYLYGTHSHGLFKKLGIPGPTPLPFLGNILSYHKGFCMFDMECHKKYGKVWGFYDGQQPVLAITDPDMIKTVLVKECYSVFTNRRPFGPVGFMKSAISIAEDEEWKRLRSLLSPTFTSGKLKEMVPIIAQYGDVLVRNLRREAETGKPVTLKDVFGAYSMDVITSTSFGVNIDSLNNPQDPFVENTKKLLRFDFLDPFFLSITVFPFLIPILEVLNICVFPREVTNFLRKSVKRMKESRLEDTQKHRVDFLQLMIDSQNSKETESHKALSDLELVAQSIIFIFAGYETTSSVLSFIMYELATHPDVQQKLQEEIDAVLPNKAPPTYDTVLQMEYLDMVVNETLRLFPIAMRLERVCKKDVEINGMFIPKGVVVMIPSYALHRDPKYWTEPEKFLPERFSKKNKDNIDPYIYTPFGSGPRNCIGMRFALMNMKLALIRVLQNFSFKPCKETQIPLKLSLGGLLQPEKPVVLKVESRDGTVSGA
Cytochrome P450 2C9, sequence (P11712 whole entry): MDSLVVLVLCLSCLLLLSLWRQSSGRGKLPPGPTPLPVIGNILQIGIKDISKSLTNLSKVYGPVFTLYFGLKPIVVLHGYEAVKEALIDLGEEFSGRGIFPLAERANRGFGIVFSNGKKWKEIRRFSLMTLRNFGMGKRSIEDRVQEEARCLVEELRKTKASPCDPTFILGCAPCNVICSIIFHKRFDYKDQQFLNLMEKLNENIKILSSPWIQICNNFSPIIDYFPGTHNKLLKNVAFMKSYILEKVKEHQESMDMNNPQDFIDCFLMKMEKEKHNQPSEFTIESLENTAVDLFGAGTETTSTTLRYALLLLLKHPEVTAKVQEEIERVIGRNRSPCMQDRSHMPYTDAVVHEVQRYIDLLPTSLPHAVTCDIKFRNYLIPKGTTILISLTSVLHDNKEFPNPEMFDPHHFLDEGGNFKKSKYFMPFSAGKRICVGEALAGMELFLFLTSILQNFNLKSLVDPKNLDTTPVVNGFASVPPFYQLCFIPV
Cytochrome P450 2D6, sequence (P10635 whole entry): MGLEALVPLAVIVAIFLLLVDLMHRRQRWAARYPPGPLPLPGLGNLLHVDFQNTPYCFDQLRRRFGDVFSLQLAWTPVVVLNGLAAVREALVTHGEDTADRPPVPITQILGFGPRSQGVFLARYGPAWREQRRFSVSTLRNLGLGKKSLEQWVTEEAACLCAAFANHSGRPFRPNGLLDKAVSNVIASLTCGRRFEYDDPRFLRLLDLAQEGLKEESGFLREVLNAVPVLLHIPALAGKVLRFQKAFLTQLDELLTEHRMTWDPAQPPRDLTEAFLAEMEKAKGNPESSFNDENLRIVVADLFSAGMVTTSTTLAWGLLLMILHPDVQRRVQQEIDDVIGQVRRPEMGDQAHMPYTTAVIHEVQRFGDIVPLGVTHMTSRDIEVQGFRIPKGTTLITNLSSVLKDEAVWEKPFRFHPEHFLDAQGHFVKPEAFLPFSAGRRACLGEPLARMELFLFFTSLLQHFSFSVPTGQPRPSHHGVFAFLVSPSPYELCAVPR
Cytochrome P450 2C19, sequence (P33261 whole entry): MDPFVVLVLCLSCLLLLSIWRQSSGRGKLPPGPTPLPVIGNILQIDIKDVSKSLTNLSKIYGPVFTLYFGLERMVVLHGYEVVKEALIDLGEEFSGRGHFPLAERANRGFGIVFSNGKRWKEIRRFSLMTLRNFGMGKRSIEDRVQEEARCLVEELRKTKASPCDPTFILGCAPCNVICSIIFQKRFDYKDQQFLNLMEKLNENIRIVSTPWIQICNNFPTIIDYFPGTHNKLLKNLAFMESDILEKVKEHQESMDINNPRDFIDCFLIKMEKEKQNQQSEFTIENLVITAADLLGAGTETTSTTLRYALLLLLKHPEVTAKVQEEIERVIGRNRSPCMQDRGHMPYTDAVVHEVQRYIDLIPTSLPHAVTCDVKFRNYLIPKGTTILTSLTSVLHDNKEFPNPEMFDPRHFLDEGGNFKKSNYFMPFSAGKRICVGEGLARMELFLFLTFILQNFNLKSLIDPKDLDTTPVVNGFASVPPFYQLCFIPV

Row | Structure (SMILES) | selectivity ratio [1] | IC50 [2] | IC50 [3] | IC50 [11] | other results
1 | NC1=Nc2ccccc2CN1CC(O)c1ccc(Cl)cc1Cl (racemic) | 141 | 25 nM | 177 nM |  | 
2 | Nc1nc2ccc(C(=O)NC3CC3)nc2n1CC(O)c1ccc(Cl)cc1Cl (racemic) | > 10 | > 500 nM | > 2000 nM |  | 
3 | Nc1nc2ccccc2n1CC(O)c1ccc(Cl)cc1Cl (racemic) |  | 7 nM | 18 nM |  | IC50 [4]: 11.6 nM; IC50 [5]: 30 nM; microsomal CLint [6]: 25 µL/min/mg; microsomal CLint [7]: 213 µL/min/mg; hepatocyte CLint [8]: 155 µL/min/1e6 cells; IC50 [9]: 42.5 nM; IC50 [10]: 4.09 nM
4 | Nc1nc2ccccc2n1-c1ccccc1O | 1190 | 54 nM | 84 nM |  | IC50 [4]: 260 nM; IC50 [5]: 329 nM; IC50 [9]: 164 nM; IC50 [10]: 66.1 nM
5 | Nc1ncccc1CC(O)c1cccc(Cl)c1Cl (racemic) | 294 | 50 nM | 180 nM |  | IC50 [4]: 110 nM; IC50 [5]: 410 nM; IC50 [9]: 472 nM; IC50 [10]: 29.2 nM
6 | Nc1nc(-c2ccc(F)cc2)cn1CC(O)c1ccc(C(F)(F)F)cc1Cl (racemic) | 72 | 60 nM | 140 nM | 25 µM | 
7 | Cc1cc(Cl)ccc1C(O)Cn1ccnc1N (racemic) | > 50 | > 2000 nM | > 2000 nM |  | 
8 | Nc1nccn1CC(O)c1ccc(Cl)cc1F (racemic) | > 50 | > 2000 nM | > 2000 nM | 60 µM | 
9 | Nc1nc(C2CC2)cn1CC(O)c1ccc(Cl)cc1Cl (racemic) | 241 | 70 nM | 120 nM | 4.5 µM | 
10 | Nc1nnc(C2CC2)n1CC(O)c1ccc(C(F)(F)F)cc1Cl (racemic) | > 50 | > 2000 nM | > 2000 nM |  | 
11 | Nc1nc2ccc(NCC(F)(F)F)nc2n1CC(O)c1ccc(Cl)cc1Cl (racemic) | 375 | 14 nM | 40 nM | 3.5 µM | microsomal CLint [6]: 17 µL/min/mg; microsomal CLint [7]: 87 µL/min/mg; hepatocyte CLint [8]: 198 µL/min/1e6 cells
12 | COC1=C2C[C@@H](C)C[C@H](OC)[C@H](O)[C@@H](C)/C=C(\C)[C@H](OC(N)=O)[C@@H](OC)/C=C\C=C(/C)C(=O)NC(=CC1=O)C2=O [GELDANAMYCIN] |  |  |  |  | IC50 [12]: 257 nM; IC50 [13]: 169 nM; IC50 [14]: 176 nM; IC50 [15]: 204 nM
13 | O=C1C(O)=C([C@H]2CC[C@H](c3ccc(Cl)cc3)CC2)C(=O)c2ccccc21 [ATOVAQUONE] |  | 2.26 nM | 1.36 nM |  | IC50 [4]: 1.16 nM; IC50 [9]: > 2000 nM; IC50 [10]: 2.32 nM
14 | Nc1nc2cnccc2n1CC(O)c1ccc(Cl)cc1Cl (racemic) | > 25 | > 500 nM | > 2000 nM |  | microsomal CLint [6]: 5 µL/min/mg; microsomal CLint [7]: 41 µL/min/mg; hepatocyte CLint [8]: 14 µL/min/1e6 cells
15 | Nc1nnnn1CC(O)c1c(Cl)cccc1Cl (racemic) | > 50 | > 2000 nM | > 2000 nM |  | 
16 | Nc1nc2cccnc2n1CC(O)c1cccc(Cl)c1Cl (racemic) | 26 | 180 nM | 340 nM | > 33.3 µM | fraction unbound [16]: 0.118; microsomal CLint [6]: 69 µL/min/mg; IC50 [17]: 10.2 µM; IC50 [18]: > 30 µM; hepatocyte CLint [8]: 110 µL/min/1e6 cells; IC50 [19]: > 30 µM; solubility [20]: 26 µM (≈ 8.4 µg/mL); IC50 [21]: > 30 µM; logD [22]: 3; IC50 [23]: 5.2 µM
